Measured values published in patent US20130230459A1, “RADIOLABELLED mGluR2 PET LIGANDS” (Janssen Pharmaceuticals, Inc., priority 2010, published 2013).
Where “and” joins values, the source holds several entries; their conditions need not be identical. Identical values can stand only once.

Experiment: Biodistribution studies of 11C tracers
Format: in vivo, Wistar rats
Settings: for SUV Blood / SUV Cerebellum / SUV Cerebrum total / SUV Cortex / SUV Hippocampus / SUV Striatum: normalized for body weight; for % ID present in the carcass: at all time points examined
Description: Biodistribution studies were carried out in healthy male Wistar rats (body weight 200-450 g) at 2 min, 30 min and 60 min post injection (p.i.) (n=3/time point). Rats were injected with about 11 MBq (2 min, 30 min analysis) or 22 MBq (60 min analysis) of the tracer via tail vein under anesthesia (2.5% isoflurane in O2 at 1 L/min flow rate) and sacrificed by decapitation at above specified time points. Blood and major organs were collected in tared tubes and weighed. The radioactivity in blood, organs and other body parts was measured using an automated gamma counter. The distribution of radioactivity in different parts of the body at different time points p.i. of the tracer was calculated and expressed as percentage of injected dose (% ID), and as percentage of injected dose per gram tissue (% ID/g) for the selected organs. % ID is calculated as cpm in organ/total cpm recovered. For calculation of total radioactivity in blood, blood mass was assumed to be 7% of the body mass.

In the case of `[11CH3]Oc1cccc(F)c1C1CCN(c2ccn3c(CC4CC4)nnc3c2Cl)CC1` [[^11C]B-6, 8-chloro-3-(cyclopropylmethyl)-7-[4-[2-fluoro-6-[^11C]methoxyphenyl]-1-piperidinyl]-1,2,4-triazolo[4,3-a]pyridine], the “% ID Blood” value (2 min p.i.) is reported as 6.5 % ID and 6.5 ± 0.9 % ID, the “% ID Carcass” value (2 min p.i.) is reported as 43.5 ± 1.4 % ID and the “% ID Cerebellum” value (2 min p.i.) is reported as 0.17 % ID and 0.170 ± 0.012 % ID. The “% ID Cerebrum total” value (2 min p.i.) was 0.45 % ID and 0.446 ± 0.073 % ID, the “% ID Cortex” value (2 min p.i.) was 0.068 ± 0.015 % ID and the “% ID Heart” value (2 min p.i.) was 4.1 ± 0.1 % ID. For the same compound, the “% ID Hippocampus” value (2 min p.i.) was 0.019 ± 0.000 % ID, the “% ID Intestines” value (2 min p.i.) was 7.6 ± 0.5 % ID and the “% ID Kidneys” value (2 min p.i.) was 6.8 ± 0.7 % ID. The “% ID Liver” value (2 min p.i.) was 30.2 ± 0.9 % ID, the “% ID Lungs” value (2 min p.i.) was 1.8 ± 0.5 % ID and the “% ID Rest of cerebrum” value (2 min p.i.) was 0.359 ± 0.086 % ID. For the same compound, the “% ID Spleen + Pancreas” value (2 min p.i.) was 1.4 ± 0.1 % ID, the “% ID Stomach” value (2 min p.i.) was 1.3 ± 0.2 % ID and the “% ID Striatum” value (2 min p.i.) was 0.022 ± 0.002 % ID. The “% ID Urine” value (2 min p.i.) was 0.1 ± 0.0 % ID, the Total brain uptake (2 min p.i.) was 0.65 % ID and 0.65 ± 0.1 % ID and the “SUV Blood” value (2 min p.i.) was 0.90 ± 0.01. For the same compound, the “SUV Cerebellum” value (2 min p.i.) was 1.62 ± 0.00, the “SUV Cerebrum total” value (2 min p.i.) was 1.00 ± 0.02 and the “SUV Cortex” value (2 min p.i.) was 1.04 ± 0.00. The “SUV Hippocampus” value (2 min p.i.) was 0.86 ± 0.01, the “SUV Striatum” value (2 min p.i.) was 1.01 ± 0.01 and the “% ID Blood” value (30 min p.i.) was 2.9 ± 0.1 % ID. The “% ID Carcass” value (30 min p.i.) was 61.8 ± 2.1 % ID, the “% ID Cerebellum” value (30 min p.i.) was 0.201 ± 0.016 % ID and the “% ID Cerebrum total” value (30 min p.i.) was 0.723 ± 0.103 % ID. For the same compound, the “% ID Cortex” value (30 min p.i.) was 0.078 ± 0.020 % ID, the “% ID Heart” value (30 min p.i.) was 1.7 ± 0.2 % ID and the “% ID Hippocampus” value (30 min p.i.) was 0.028 ± 0.006 % ID. The “% ID Intestines” value (30 min p.i.) was 9.9 ± 1.4 % ID, the “% ID Kidneys” value (30 min p.i.) was 3.0 ± 0.4 % ID and the “% ID Liver” value (30 min p.i.) was 17.0 ± 1.1 % ID. The “% ID Lungs” value (30 min p.i.) was 0.8 ± 0.1 % ID, the “% ID Rest of cerebrum” value (30 min p.i.) was 0.580 ± 0.081 % ID and the “% ID Spleen + Pancreas” value (30 min p.i.) was 1.0 ± 0.2 % ID. For the same compound, the “% ID Stomach” value (30 min p.i.) was 2.3 ± 0.5 % ID, the “% ID Striatum” value (30 min p.i.) was 0.037 ± 0.005 % ID and the “% ID Urine” value (30 min p.i.) was 0.3 ± 0.1 % ID. For the same compound, the Total brain uptake (30 min p.i.) was 0.95 ± 0.1 % ID, the “SUV Blood” value (30 min p.i.) was 0.40 ± 0.00 and the “SUV Cerebellum” value (30 min p.i.) was 2.28 and 2.28 ± 0.01. For the same compound, the “SUV Cerebrum total” value (30 min p.i.) was 1.66 ± 0.02, the “SUV Cortex” value (30 min p.i.) was 1.47 ± 0.03 and the “SUV Hippocampus” value (30 min p.i.) was 1.36 ± 0.01. The “SUV Striatum” value (30 min p.i.) was 1.70 ± 0.01, the “% ID Blood” value (60 min p.i.) was 3.6 % ID and 3.6 ± 0.2 % ID and the “% ID Carcass” value (60 min p.i.) was 57.8 ± 1.9 % ID. For the same compound, the “% ID Cerebellum” value (60 min p.i.) was 0.155 ± 0.024 % ID, the “% ID Cerebrum total” value (60 min p.i.) was 0.597 ± 0.062 % ID and the “% ID Cortex” value (60 min p.i.) was 0.074 ± 0.021 % ID. For the same compound, the “% ID Heart” value (60 min p.i.) was 1.0 ± 0.1 % ID, the “% ID Hippocampus” value (60 min p.i.) was 0.024 ± 0.003 % ID and the “% ID Intestines” value (60 min p.i.) was 12.0 ± 1.1 % ID. For the same compound, the “% ID Kidneys” value (60 min p.i.) was 1.9 ± 0.3 % ID, the “% ID Liver” value (60 min p.i.) was 18.6 ± 1.0 % ID and the “% ID Lungs” value (60 min p.i.) was 0.6 ± 0.1 % ID. For the same compound, the “% ID Rest of cerebrum” value (60 min p.i.) was 0.468 ± 0.054 % ID, the “% ID Spleen + Pancreas” value (60 min p.i.) was 0.8 ± 0.0 % ID and the “% ID Stomach” value (60 min p.i.) was 4.3 ± 1.8 % ID. For the same compound, the “% ID Striatum” value (60 min p.i.) was 0.031 ± 0.003 % ID, the “% ID Urine” value (60 min p.i.) was 0.6 ± 0.1 % ID and the “% ID present in liver and intestines” value (60 min p.i.) was 30.6 % ID. The “% ID present in the urinary system” value (60 min p.i.) was 2.5 % ID, the Total brain uptake (60 min p.i.) was 0.76 ± 0.1 % ID and the “SUV Blood” value (60 min p.i.) was 0.50 ± 0.00. For the same compound, the “SUV Cerebellum” value (60 min p.i.) was 1.57 ± 0.01, the “SUV Cerebrum total” value (60 min p.i.) was 1.24 ± 0.01 and the “SUV Cortex” value (60 min p.i.) was 1.01 ± 0.01. For the same compound, the “SUV Hippocampus” value (60 min p.i.) was 1.02 ± 0.01, the “SUV Striatum” value (60 min p.i.) was 1.46 ± 0.01 and the “% ID present in the carcass” value was about 54 % ID.
With `[11CH3]Oc1c(F)ccc(F)c1C1CCN(c2ccn3c(CC4CC4)nnc3c2C(F)(F)F)CC1` [[^11C]B-3, 3-(cyclopropylmethyl)-7-[4-[3,6-difluoro-2-[^11C]methoxyphenyl]-1-piperidinyl]-8-(trifluoromethyl)-1,2,4-triazolo[4,3-a]pyridine] the “% ID Blood” value (2 min p.i.) was 8.5 % ID and 8.5 ± 1.9 % ID, the “% ID Carcass” value (2 min p.i.) was 36.0 ± 0.7 % ID and the “% ID Cerebellum” value (2 min p.i.) was 0.17 % ID and 0.165 ± 0.009 % ID. For the same compound, the “% ID Cerebrum total” value (2 min p.i.) was 0.54 % ID and 0.536 ± 0.048 % ID, the “% ID Cortex” value (2 min p.i.) was 0.062 ± 0.009 % ID and the “% ID Heart” value (2 min p.i.) was 4.8 ± 0.4 % ID. For the same compound, the “% ID Hippocampus” value (2 min p.i.) was 0.017 ± 0.002 % ID, the “% ID Intestines” value (2 min p.i.) was 9.4 ± 0.8 % ID and the “% ID Kidneys” value (2 min p.i.) was 8.8 ± 0.7 % ID. The “% ID Liver” value (2 min p.i.) was 28.7 ± 2.1 % ID, the “% ID Lungs” value (2 min p.i.) was 3.7 ± 1.7 % ID and the “% ID Rest of cerebrum” value (2 min p.i.) was 0.457 ± 0.050 % ID. The “% ID Spleen + Pancreas” value (2 min p.i.) was 2.0 ± 0.1 % ID, the “% ID Stomach” value (2 min p.i.) was 1.5 ± 0.4 % ID and the “% ID Striatum” value (2 min p.i.) was 0.028 ± 0.002 % ID. The “% ID Urine” value (2 min p.i.) was 0.1 ± 0.0 % ID, the Total brain uptake (2 min p.i.) was 0.75 % ID and 0.75 ± 0.0 % ID and the “SUV Blood” value (2 min p.i.) was 1.20 ± 0.03. The “SUV Cerebellum” value (2 min p.i.) was 1.54 and 1.54 ± 0.01, the “SUV Cerebrum total” value (2 min p.i.) was 1.09 ± 0.01 and the “SUV Cortex” value (2 min p.i.) was 1.03 ± 0.00. The “SUV Hippocampus” value (2 min p.i.) was 0.85 ± 0.01, the “SUV Striatum” value (2 min p.i.) was 0.99 ± 0.00 and the “% ID Blood” value (30 min p.i.) was 2.6 ± 0.7 % ID. For the same compound, the “% ID Carcass” value (30 min p.i.) was 46.7 ± 7.8 % ID, the “% ID Cerebellum” value (30 min p.i.) was 0.142 ± 0.042 % ID and the “% ID Cerebrum total” value (30 min p.i.) was 0.489 ± 0.121 % ID. The “% ID Cortex” value (30 min p.i.) was 0.071 ± 0.031 % ID, the “% ID Heart” value (30 min p.i.) was 1.7 ± 0.7 % ID and the “% ID Hippocampus” value (30 min p.i.) was 0.019 ± 0.006 % ID. For the same compound, the “% ID Intestines” value (30 min p.i.) was 8.9 ± 1.4 % ID, the “% ID Kidneys” value (30 min p.i.) was 3.4 ± 1.0 % ID and the “% ID Liver” value (30 min p.i.) was 31.3 ± 9.7 % ID. For the same compound, the “% ID Lungs” value (30 min p.i.) was 0.5 ± 0.2 % ID, the “% ID Rest of cerebrum” value (30 min p.i.) was 0.373 ± 0.084 % ID and the “% ID Spleen + Pancreas” value (30 min p.i.) was 1.1 ± 0.3 % ID. For the same compound, the “% ID Stomach” value (30 min p.i.) was 3.8 ± 1.4 % ID, the “% ID Striatum” value (30 min p.i.) was 0.027 ± 0.007 % ID and the “% ID Urine” value (30 min p.i.) was 0.5 ± 0.1 % ID. The Total brain uptake (30 min p.i.) was 0.64 ± 0.2 % ID, the “SUV Blood” value (30 min p.i.) was 0.40 ± 0.01 and the “SUV Cerebellum” value (30 min p.i.) was 1.54 and 1.54 ± 0.04. For the same compound, the “SUV Cerebrum total” value (30 min p.i.) was 1.11 ± 0.03, the “SUV Cortex” value (30 min p.i.) was 1.00 ± 0.03 and the “SUV Hippocampus” value (30 min p.i.) was 0.84 ± 0.02. The “SUV Striatum” value (30 min p.i.) was 1.15 ± 0.04, the “% ID Blood” value (60 min p.i.) was 2.9 % ID and 2.9 ± 0.4 % ID and the “% ID Carcass” value (60 min p.i.) was 44.2 ± 10.9 % ID. The “% ID Cerebellum” value (60 min p.i.) was 0.142 ± 0.050 % ID, the “% ID Cerebrum total” value (60 min p.i.) was 0.499 ± 0.168 % ID and the “% ID Cortex” value (60 min p.i.) was 0.069 ± 0.027 % ID. The “% ID Heart” value (60 min p.i.) was 1.1 ± 0.6 % ID, the “% ID Hippocampus” value (60 min p.i.) was 0.023 ± 0.011 % ID and the “% ID Intestines” value (60 min p.i.) was 14.8 ± 1.7 % ID. The “% ID Kidneys” value (60 min p.i.) was 2.4 ± 0.9 % ID, the “% ID Liver” value (60 min p.i.) was 23.6 ± 12.9 % ID and the “% ID Lungs” value (60 min p.i.) was 0.7 ± 0.3 % ID. For the same compound, the “% ID Rest of cerebrum” value (60 min p.i.) was 0.371 ± 0.119 % ID, the “% ID Spleen + Pancreas” value (60 min p.i.) was 0.9 ± 0.3 % ID and the “% ID Stomach” value (60 min p.i.) was 9.6 ± 2.2 % ID. For the same compound, the “% ID Striatum” value (60 min p.i.) was 0.036 ± 0.014 % ID, the “% ID Urine” value (60 min p.i.) was 0.4 ± 0.1 % ID and the “% ID present in liver and intestines” value (60 min p.i.) was 38.4 % ID. For the same compound, the “% ID present in the urinary system” value (60 min p.i.) was 2.8 % ID, the Total brain uptake (60 min p.i.) was 0.66 ± 0.2 % ID and the “SUV Blood” value (60 min p.i.) was 0.40 ± 0.01. For the same compound, the “SUV Cerebellum” value (60 min p.i.) was 1.84 ± 0.07, the “SUV Cerebrum total” value (60 min p.i.) was 1.38 ± 0.05 and the “SUV Cortex” value (60 min p.i.) was 1.13 ± 0.04. The “SUV Hippocampus” value (60 min p.i.) was 1.11 ± 0.04, the “SUV Striatum” value (60 min p.i.) was 1.76 ± 0.07 and the “% ID present in the carcass” value was about 42 % ID.
